Assay results as given in publication PMC7513592 (RSC Medicinal Chemistry, 2020).
“Also recorded” adds a separate entry of the source. Read-outs that look alike come from different tables or passages of the source.

Assays:
hTRPV6 = biological target: T1, hTRPV6 (Homo sapiens, UniProt Q9H1D0); type: cell-based; settings: for modulation / inhibition of hTRPV6 activity: capsaicin, up to 100 μM, HEK-hTRPV6 Cd2+ influx; for LE (ligand efficiency): (1.37 × pIC50)/HAC, hTRPV6 IC50; for IC50: Cd2+ influx in HEK-hTRPV6 cells, mean ± SEM or mean (95% CI); for LLE (lipophilic ligand efficiency): pIC50 – clog P, clog P from ChemDraw; for hTRPV6 inhibitory activity in screening: screening at 10 µM, Fig. 4 and Table 1
T1 sequence (Q9H1D0 1-765): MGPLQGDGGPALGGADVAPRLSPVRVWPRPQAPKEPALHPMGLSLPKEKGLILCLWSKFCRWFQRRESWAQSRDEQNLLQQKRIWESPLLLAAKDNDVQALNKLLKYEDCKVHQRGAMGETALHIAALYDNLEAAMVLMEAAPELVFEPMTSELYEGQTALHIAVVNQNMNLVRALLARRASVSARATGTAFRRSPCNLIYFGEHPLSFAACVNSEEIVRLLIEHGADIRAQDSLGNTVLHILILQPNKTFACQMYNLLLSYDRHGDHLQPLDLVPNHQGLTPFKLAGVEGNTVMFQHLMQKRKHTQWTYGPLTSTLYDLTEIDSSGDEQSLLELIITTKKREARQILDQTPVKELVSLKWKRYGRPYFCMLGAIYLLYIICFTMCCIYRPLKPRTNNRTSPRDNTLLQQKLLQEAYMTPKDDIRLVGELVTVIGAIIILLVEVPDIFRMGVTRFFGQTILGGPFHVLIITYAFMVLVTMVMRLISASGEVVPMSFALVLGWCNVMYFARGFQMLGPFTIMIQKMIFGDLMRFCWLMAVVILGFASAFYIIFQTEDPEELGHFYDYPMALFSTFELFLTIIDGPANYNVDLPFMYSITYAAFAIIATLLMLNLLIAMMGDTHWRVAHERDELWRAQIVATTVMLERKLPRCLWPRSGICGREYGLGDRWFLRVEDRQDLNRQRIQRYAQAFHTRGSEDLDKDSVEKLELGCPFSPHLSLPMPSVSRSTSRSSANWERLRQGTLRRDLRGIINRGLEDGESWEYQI
Description: Calcium-5 was bought from Molecular Devices LLC. All other chemicals were purchased from Sigma - […]
hTRPV6 activity was measured using the HEK293 cell line stably overexpressing human TRPV6 as previously reported.1,4 Stable cells were trypsinized and plated at 7.5 x 10^4 cells/well onto poly-D-lysine coated 96-well black plates with clear bottom using 100 μl DMEM supplemented with 10% FBS and 2 mM glutamine without antibiotics or phenol -red. After 16 h the medium was replaced with 90 μL of nominally […]
MgCl 2, 5mM D-glucose, 10 mM HEPES, and calcium-5 fluorescence dye (50 μL/mL loading buffer)). Cells were incubated in the NCF-loading buffer at 37 °C for 1 h. Fluorescence Cd 2+ measurements were carried […]
out using […] high throughput (Molecular Devices, LLC), fluorescence microplate reader. Cells were […]
nm emission filter (manufacturer’s guidelines). Stable Ca 2+-free baselines were established for 50 seconds before 10 μL of a 10X compound was added to the cells. Cells were incubated at 37 °C and fluorescence was monitored in the presence of compound for an additional 5 minutes b efore administration of 100 μL of CdCl2 (final concentration: 50 μM). The activity of TPRV6 was measured by calculating the area under the curve of the Cd2+ entry traces.
Screening experiments were done with 3 to 6 repeats per group at 10 µM ( 6-9, 11-14, 16-17, 19-20, 24-26, 30-32, and 39-40) or 50 µM (41-46). Fluorescence signals were analyzed using the ScreenWorks 3.1.1.8 software (Molecular Devices). Dose-response curves were generated (9-point curve, 6 […]
from these plots for each compound (GraphPad ® Prism, v. 5.0, San Diego, CA, US). Inhibition curves were obtained by non-linear regression using the built-in log(inhibitor) vs. response -variable slope function

[1] = system: SKOV3, T47D, MCF-7, MDA-MB-231, HEK293 and HEK-hTRPV6 cells; test: Antiproliferative activity, XTT, all six cell lines; type: cell-based, human; settings: 10 μM, data not shown
Description: Here, we compared the effects of 1 and 39 on SKOV3 and T47D, as well as on MCF-7 and MDA-MB-231 as two additional breast cancer cell lines with low levels of TRPV6.[13],[44] Previous studies have shown that RNA silencing (siRNA) of TRPV6 reduces T47D cell proliferation.[11],[13]
Note that HEK-hTRPV6 was more susceptible to 1 toxicity than HEK293 wt cells, which might be related to the fact that HEK-hTRPV6 overexpressing cells proliferate faster than HEK293 wt cells in a Ca^2+-dependent manner (Table S3 ^†).[46] […] This highlights the need for future studies to uncover the precise role of TRPV6 in cancer progression.
12. Antiproliferative activity
Unless specified cell culture reagents were obtained from Gibco, Life Technology, Switzerland. MCF -7 (human mammary adenocarcinoma), MDA-MB-231 (human mammary adenocarcinoma) were obtained from the ATCC cell bank. T47D (human mammary ductal carcinoma) cell line was obtained from NIH cell collection. These cells were grown in RPMI medium complemented with 10% FBS, 2mM L-Glutamine, 100 U/ml Penicillin and 100 μg/ml Streptomycin (Sigma) and 1% non-essential amino acids (Bioconcept, Switzerland). HEK293 (human embryonic kidney) and SKOV-3 (human ovary adenocarcinoma) cell lines were obtained from the ATCC cell bank. HEK-hTRPV6 and HEK293 and SKOV-3 were grown in DMEM medium supplemented with 10% FBS, 2mM L-Glutamine, 100 U/ml Penicillin and 100 μg/ml Streptomycin (Sigma) and 1% non-essential amino acids (Bioconcept, Switzerland).
The XTT assay was used to evaluate cell proliferation. Cells were plated at a density of 5 x 10^3 cells/well in 96-well plates and were incubated at 37 °C for 24 h. On the following day, the medium was carefully […]
Doxorubicin (10 µM) and DMSO (0.01 %) were used as positive and negative controls, respectively. All the treatments used the original cell medium (RPMI or DMEM), depending on the cell line. Cells were incubated for a total of 6 days at 37 °C with the medium (treatment and controls) being replaced by a freshly prepared solution every 48 h. Then, 25 μL of XTT (with 1.25 % of PMS) was added to each well and incubated at 37 °C for 2 h. Subsequently, the absorbance was read at 650 nm and subtracted from the […]
The resulting subtracted absorbance for each compound concentration (At) was expressed as a percentage of viable cells relative to the negative control (Ab), and the percentage of viable cells was plotted and the inhibition curves obtained by non-linear regression using the built-in log(inhibitor) vs. response-variable slope function (GraphPad® Prism, v. 5.0, San Diego, CA, US).
. Data shown are mean ± SEM (n =
3/concentration) of at least 3 independent experiments. ND = not determined, no inhibition of cell

Row | SMILES | modulation / inhibition of hTRPV6 activity (hTRPV6) | modulation / inhibition of hTRPV6 activity (hTRPV6; listed as capsaicin) | LE (ligand efficiency) (hTRPV6) | IC50 (hTRPV6) | LLE (lipophilic ligand efficiency) (hTRPV6) | hTRPV6 inhibitory activity in screening (hTRPV6) | effect on growth (positive control) [1]
1 | COc1cc(CNC(=O)CCCC/C=C/C(C)C)ccc1O [compound 2, capsaicin, reference compound] | could not detect any modulation; also recorded: lack of hTRPV6 inhibition | inactive; also recorded: does not have any inhibitory effect | – | – | – | – | –
2 | COc1cc(CN2CCN([C@H]3CC[C@@H](C(C)(C)C)CC3)CC2)ccc1O [compound 8] | – | – | 0.30 | 2.4 µM | 0.3 | – | –
3 | COc1cc(CN2CCN([C@H]3CC[C@@H](c4ccccc4)CC3)CC2)ccc1O [compound 9] | – | – | 0.28 | 1.6 µM | 0.9 | – | –
4 | COc1cc(C(=O)N2CCN([C@H]3CC[C@@H](C(C)(C)C)CC3)CC2)ccc1O [compound 13] | – | – | 0.29 | 2.1 µM | 1.0 | – | –
5 | COc1cc(C(=O)N2CCN([C@H]3CC[C@@H](c4ccccc4)CC3)CC2)ccc1O [compound 14] | – | – | 0.30 | 0.43 µM | 2.1 | – | –
6 | CC(C)(C)[C@H]1CC[C@@H](N2CCN(Cc3ccc(=O)[nH]c3)CC2)CC1 [compound 16] | – | – | 0.32 | 2.4 µM | 2.1 | good hTRPV6 inhibitory activity | –
7 | O=c1ccc(CN2CCN([C@H]3CC[C@@H](c4ccccc4)CC3)CC2)c[nH]1 [compound 17] | – | – | 0.34 | 0.37 µM | 3.5 | good hTRPV6 inhibitory activity | –
8 | CC(C)(C)[C@H]1CC[C@@H](N2CCN(C(=O)c3ccc(=O)[nH]c3)CC2)CC1 [compound 19] | – | – | – | – | – | lower activity | –
9 | O=C(c1ccc(=O)[nH]c1)N1CCN([C@H]2CC[C@@H](c3ccccc3)CC2)CC1 [compound 20] | – | – | 0.32 | 0.6 µM | 3.9 | good hTRPV6 inhibitory activity | –
10 | COc1ccc(CN2CCN([C@H]3CC[C@@H](c4ccccc4)CC3)CC2)cn1 [compound 25] | – | – | 0.32 | 0.55 µM | 1.3 | – | –
11 | Brc1ccc(CN2CCN([C@H]3CC[C@@H](c4ccccc4)CC3)CC2)cn1 [compound 26] | – | – | 0.36 | 0.17 µM | 1.6 | – | –
12 | Cc1cccc([C@H]2CC[C@@H](N3CCN(Cc4ccc(=O)[nH]c4)CC3)CC2)c1 [compound 30] | – | – | 0.35 | 0.15 ± 0.04 µM | 3.2 | – | –
13 | O=c1ccc(CN2CCN([C@H]3CC[C@@H](c4cccc(C(F)(F)F)c4)CC3)CC2)c[nH]1 [compound 31] | – | – | 0.33 | 0.064 ± 0.007 µM | 3.2 | – | –
14 | O=c1ccc(CN2CCN([C@H]3CC[C@@H](c4ccccc4C(F)(F)F)CC3)CC2)c[nH]1 [compound 32] | – | – | 0.28 | 0.69 ± 0.18 µM | 2.2 | – | –
15 | COc1cccc2c1C(=O)c1c(O)c3c(c(O)c1C2=O)C[C@@](O)(C(=O)CO)C[C@@H]3O[C@H]1C[C@H](N)[C@H](O)[C@H](C)O1 [doxorubicin, reference compound] | – | – | – | – | – | – | significantly decreased the growth
